Test system: gene markers (Tap1 or Ctss)
Experiment: Temporal changes in blood expression levels of Tap1 and Ctss after heart transplantation (Example 5, FIG. 4)
Type: in vivo, rat
Settings: s.c. daily dosing as in Example 2; blood mRNA to post-transplantation day 4, relative to pre-transplantation level (as 1)
Experimental: To precisely examine changes in the expression level of each of the genes selected here, their mRNAs were quantified. For Irf1, Psmb9, Nos2, and Pim1, the mRNA was quantified by using 25 ng of extracted mRNA together with each primer and probe shown in Table 1, synthesizing cDNA with TaqMan Reverse Transcription Reagents (manufactured by Applied Biosystems) under the conditions shown in Table 1, on an ABI PRISM 7900HT Detection System (manufactured by Applied Biosystems), and using β-actin as an internal control. For Tap1 and Ctss, mRNA was quantified by using 25 ng of extracted mRNA together with each primer and probe (final concentrations: […] each primer, 250 nM TaqMan probe; TaqMan Gene Expression Assays Rn00709612_ml (Tap1) or Rn00569036_ml (Ctss), Applied Biosystems), synthesizing cDNA with TaqMan Reverse Transcription Reagents (manufactured by Applied Biosystems) on an ABI PRISM 7900HT Detection System (manufactured by Applied Biosystems), and using β-actin as an internal control. […]

With `C=CC[C@@H]1/C=C(\C)C[C@H](C)C[C@H](OC)[C@H]2O[C@@](O)(C(=O)C(=O)N3CCCC[C@H]3C(=O)O[C@H](/C(C)=C/[C@@H]3CC[C@@H](O)[C@H](OC)C3)[C@H](C)[C@@H](O)CC1=O)[C@H](C)C[C@@H]2OC` [tacrolimus] the “expression levels of the gene markers Tap1 and Ctss compared with the rejection group” value was “suppressed compared with the rejection group, to the level similar to or lower than that of the non-rejection group”.

Source: patent publication US20090053695A1, “Gene Marker and Use Thereof” (priority 2004, published 2009)
